Measurements from patent publication US20250019374A1, “PROTEIN TYROSINE PHOSPHATASE INHIBITORS AND METHODS OF USE THEREOF” (Calico Life Sciences LLC, priority 2021, published 2025).
Read-outs that look alike come from different tables or passages of the source.

Key:
[1] = target: His tagged PTPN2 (TC45) protein (Homo sapiens (Human), UniProt P17706); test: PTPN2 Mobility Shift Assay (MSA); type: biochemical; settings: for Dihydrobenzofuran or Indoline x-fold>potency biochemical: x-fold versus corresponding chromane comparator, PTPN2 MSA
Chain of His tagged PTPN2 (TC45) protein (P17706 other isoform, or with tags, fused parts or gaps): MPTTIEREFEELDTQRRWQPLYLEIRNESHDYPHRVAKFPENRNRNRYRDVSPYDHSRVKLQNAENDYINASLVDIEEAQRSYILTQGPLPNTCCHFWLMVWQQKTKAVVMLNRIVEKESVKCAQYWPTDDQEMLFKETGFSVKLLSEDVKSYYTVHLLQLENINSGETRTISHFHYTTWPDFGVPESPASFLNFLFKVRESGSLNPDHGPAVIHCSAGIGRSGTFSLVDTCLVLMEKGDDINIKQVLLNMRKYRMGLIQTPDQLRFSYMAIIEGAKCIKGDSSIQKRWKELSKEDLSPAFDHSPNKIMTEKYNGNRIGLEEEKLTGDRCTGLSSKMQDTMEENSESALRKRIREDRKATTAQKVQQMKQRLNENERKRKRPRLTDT
Method in brief: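 His-tagged human PTPN2 (TC45), 0.5 nM, preincubated with compound (12-point, 1:3) 10 min at room temperature in HEPES pH 7.5 buffer with EDTA, EGTA, DTT. Dephosphorylation of 2 μM fluorescent phospho-insulin-receptor peptide over 10 min read by mobility shift; IC50 from % inhibition.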

[2] = target: His tagged full-length PTPN1 protein (Homo sapiens (Human), UniProt P18031); test: PTPN1 Mobility Shift Assay (MSA); type: biochemical; settings: enzyme 0.5 nM, substrate 2 μM
Chain of His tagged full-length PTPN1 protein (P18031 whole entry): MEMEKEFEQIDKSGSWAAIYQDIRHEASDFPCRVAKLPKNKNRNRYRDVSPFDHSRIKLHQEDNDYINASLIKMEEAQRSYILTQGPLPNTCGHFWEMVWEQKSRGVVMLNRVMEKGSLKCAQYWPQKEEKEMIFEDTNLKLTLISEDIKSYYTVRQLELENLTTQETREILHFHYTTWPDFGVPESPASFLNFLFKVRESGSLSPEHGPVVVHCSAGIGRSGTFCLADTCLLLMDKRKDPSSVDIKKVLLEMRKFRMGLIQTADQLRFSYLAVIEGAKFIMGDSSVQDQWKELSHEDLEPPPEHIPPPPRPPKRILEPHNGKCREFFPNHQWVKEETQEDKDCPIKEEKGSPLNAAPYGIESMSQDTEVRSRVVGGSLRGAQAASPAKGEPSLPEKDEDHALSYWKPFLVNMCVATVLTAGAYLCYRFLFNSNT
Method in brief: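 Enzyme at 0.5 nM was preincubated with compound (12-point, 1:3 dilution) for 10 min at room temperature in pH 7.5 HEPES buffer with EDTA, EGTA and DTT. OG488-labelled phosphorylated insulin-receptor peptide at 2 µM was then added for 10 min. After quench, % substrate dephosphorylation was read by mobility shift, and IC50 came from % inhibition.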

[3] = system: IFNγ-induced STAT1 phosphorylation (pSTAT1) in B16F10 cells; test: B16F10 Phospho-STAT1 HTRF proximal pharmacodynamic (PD) assay; type: cell-based, murine; settings: for EC50: B16-F10, B16F10 cells; for Dihydrobenzofuran or Indoline x-fold>potency cellular: x-fold versus corresponding chromane comparator, B16F10 pSTAT1
Method in brief: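 B16F10 cells in phenol red-free DMEM/10% FBS were dosed for 3 h at 37 °C in a 10-point, 3-fold series from 50 μM, then stimulated with 100 nM mouse IFNγ for 10 min and stopped with 3.3 μM staurosporine. pSTAT1 in lysates was measured by HTRF (665 nm emission), and EC50s were fitted from dose-response curves.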

[4] = Table 3, dihydrobenzofuran or indoline compound (X = O or NH)
[5] = 3 hours compound, 100 nM mouse IFNγ 10 minutes, read-out: B16F10 IFNγ Induced pSTAT1 EC50
[6] = Mus musculus, Table 3, dihydrobenzofuran or indoline compound (X = O or NH), read-out: pSTAT1 EC50

Row | Structure (SMILES) | IC50 [1, 4] [nM] | IC50 ([1]; enzyme 0.5 nM, substrate 2 μM) [nM] | Dihydrobenzofuran or Indoline x-fold>potency biochemical [1] | IC50 [2] [nM] | EC50 [3, 5] [nM] | EC50 [3, 6] [nM] | Dihydrobenzofuran or Indoline x-fold>potency cellular [3]
1 | O=C1CN(c2c(O)cc3c(c2F)C[C@H](CNCC2CCOCC2)N3)S(=O)(=O)N1 [Compound 138, 5-[(2R)-4-fluoro-6-hydroxy-2-({[(oxan-4-yl)methyl]amino}methyl)-2,3-dihydro-1H-indol-5-yl]-1λ^6,2,5-thiadiazolidine-1,1,3-trione] | 21.6 | 10 to 100 | 0.8 | 10 to 100 | 1560 | 156000 | 20.6
2 | CC(C)CCNC[C@H]1Cc2c(cc(O)c(N3CC(=O)NS3(=O)=O)c2F)N1 [Compound 139, 5-[(2R)-4-fluoro-6-hydroxy-2-{[(3-methylbutyl)amino]methyl}-2,3-dihydro-1H-indol-5-yl]-1λ^6,2,5-thiadiazolidine-1,1,3-trione] | 19.8 | 10 to 100 | 0.8 | 10 to 100 | 1560 | 1560 | 4.5
3 | O=C1CN(c2c(O)cc3c(c2F)C[C@H](CNCCC(F)F)N3)S(=O)(=O)N1 [Compound 140, 5-[(2R)-2-{[(3,3-difluoropropyl)amino]methyl}-4-fluoro-6-hydroxy-2,3-dihydro-1H-indol-5-yl]-1λ^6,2,5-thiadiazolidine-1,1,3-trione] | 15.2 | 10 to 100 | 0.6 | 10 to 100 | 701 | 701 | 5.1
4 | O=C1CN(c2c(O)cc3c(c2F)C[C@H](CNCCC(F)(F)F)N3)S(=O)(=O)N1 [Compound 141, 5-[(2R)-4-fluoro-6-hydroxy-2-{[(3,3,3-trifluoropropyl)amino]methyl}-2,3-dihydro-1H-indol-5-yl]-1λ^6,2,5-thiadiazolidine-1,1,3-trione] | – | 10 to 100 | – | 10 to 100 | 704 | – | –
5 | CCC(C)CNC[C@H]1Cc2c(cc(O)c(N3CC(=O)NS3(=O)=O)c2F)N1 (stereo partly drawn) [Compound 142, 5-[(2R)-4-fluoro-6-hydroxy-2-{[(2-methylbutyl)amino]methyl}-2,3-dihydro-1H-indol-5-yl]-1λ^6,2,5-thiadiazolidine-1,1,3-trione] | – | 10 to 100 | – | 10 to 100 | 1140 | – | –
6 | O=C1CN(c2c(O)cc3c(c2F)C[C@H](CNCC2CC(F)(F)C2)N3)S(=O)(=O)N1 [Compound 143, 5-[(2R)-2-({[(3,3-difluorocyclobutyl)methyl]amino}methyl)-4-fluoro-6-hydroxy-2,3-dihydro-1H-indol-5-yl]-1λ^6,2,5-thiadiazolidine-1,1,3-trione] | – | 10 to 100 | – | 10 to 100 | 1000 | – | –
7 | O=C1CN(c2c(O)cc3c(c2F)CC(CNCCC2COC2)N3)S(=O)(=O)N1 (stereo not drawn) [Compound 144, 5-[4-fluoro-6-hydroxy-2-({[2-(oxetan-3-yl)ethyl]amino}methyl)-2,3-dihydro-1H-indol-5-yl]-1λ^6,2,5-thiadiazolidine-1,1,3-trione] | – | 10 to 100 | – | > 100 | 7180 | – | –
8 | O=C1CN(c2c(O)cc3c(c2F)CC(CNCCCC(F)F)N3)S(=O)(=O)N1 (stereo not drawn) [Compound 145, 5-(2-{[(4,4-difluorobutyl)amino]methyl}-4-fluoro-6-hydroxy-2,3-dihydro-1H-indol-5-yl)-1λ^6,2,5-thiadiazolidine-1,1,3-trione] | – | 10 to 100 | – | 10 to 100 | 1970 | – | –
9 | O=C1CN(c2c(O)cc3c(c2F)C[C@H](CNCC2CCCC2)N3)S(=O)(=O)N1 [Compound 146, 5-[(2R)-2-{[(cyclopentylmethyl)amino]methyl}-4-fluoro-6-hydroxy-2,3-dihydro-1H-indol-5-yl]-1λ^6,2,5-thiadiazolidine-1,1,3-trione] | – | 10 to 100 | – | 10 to 100 | 1830 | – | –
10 | O=C1CN(c2c(O)cc3c(c2F)C[C@H](CNCC2CC2)N3)S(=O)(=O)N1 [Compound 147, 5-[(2R)-2-{[(cyclopropylmethyl)amino]methyl}-4-fluoro-6-hydroxy-2,3-dihydro-1H-indol-5-yl]-1λ^6,2,5-thiadiazolidine-1,1,3-trione] | – | 10 to 100 | – | 10 to 100 | 1840 | – | –
11 | CCCC(C)NC[C@H]1Cc2c(cc(O)c(N3CC(=O)NS3(=O)=O)c2F)N1 (stereo partly drawn) [Compound 148, 5-[(2R)-4-fluoro-6-hydroxy-2-{[(pentan-2-yl)amino]methyl}-2,3-dihydro-1H-indol-5-yl]-1λ^6,2,5-thiadiazolidine-1,1,3-trione] | – | < 10 | – | 10 to 100 | 1850 | – | –
12 | CC[C@@H](C)NC[C@H]1Cc2c(cc(O)c(N3CC(=O)NS3(=O)=O)c2F)N1 [Compound 149, 5-[(2R)-2-({[(2R)-butan-2-yl]amino}methyl)-4-fluoro-6-hydroxy-2,3-dihydro-1H-indol-5-yl]-1λ^6,2,5-thiadiazolidine-1,1,3-trione] | – | < 10 | – | 10 to 100 | 1560 | – | –
13 | CCCCNC[C@H]1Cc2c(cc(O)c(N3CC(=O)NS3(=O)=O)c2F)N1 [Compound 150, 5-{(2R)-2-[(butylamino)methyl]-4-fluoro-6-hydroxy-2,3-dihydro-1H-indol-5-yl}-1λ^6,2,5-thiadiazolidine-1,1,3-trione] | – | 10 to 100 | – | 10 to 100 | 2180 | – | –
14 | O=C1CN(c2c(O)cc3c(c2F)C[C@H](CO)N3)S(=O)(=O)N1 [Compound 151, 5-[(2R)-4-fluoro-6-hydroxy-2-(hydroxymethyl)-2,3-dihydro-1H-indol-5-yl]-1λ^6,2,5-thiadiazolidine-1,1,3-trione] | – | 10 to 100 | – | 10 to 100 | 2770 | – | –
15 | O=C1CN(c2c(O)cc3c(c2F)C[C@H](CNCCC2CC2)N3)S(=O)(=O)N1 [Compound 152, 5-[(2R)-2-{[(2-cyclopropylethyl)amino]methyl}-4-fluoro-6-hydroxy-2,3-dihydro-1H-indol-5-yl]-1λ^6,2,5-thiadiazolidine-1,1,3-trione] | – | 10 to 100 | – | 10 to 100 | 1170 | – | –
16 | CC(C)(C)CCNC[C@H]1Cc2c(cc(O)c(N3CC(=O)NS3(=O)=O)c2F)N1 [Compound 153, 5-[(2R)-2-{[(3,3-dimethylbutyl)amino]methyl}-4-fluoro-6-hydroxy-2,3-dihydro-1H-indol-5-yl]-1λ^6,2,5-thiadiazolidine-1,1,3-trione] | – | 10 to 100 | – | 10 to 100 | 2010 | – | –
17 | CC(C)C1CC(CNC[C@H]2Cc3c(cc(O)c(N4CC(=O)NS4(=O)=O)c3F)N2)C1 (stereo partly drawn) [Compound 154, 5-{(2R)-4-fluoro-6-hydroxy-2-[({[3-(propan-2-yl)cyclobutyl]methyl}amino)methyl]-2,3-dihydro-1H-indol-5-yl}-1λ^6,2,5-thiadiazolidine-1,1,3-trione] | – | < 10 | – | 10 to 100 | 1880 | – | –
18 | CC(C)CN(C)C[C@H]1Cc2c(cc(O)c(N3CC(=O)NS3(=O)=O)c2F)N1 [Compound 155, 5-[(2R)-4-fluoro-6-hydroxy-2-{[methyl(2-methylpropyl)amino]methyl}-2,3-dihydro-1H-indol-5-yl]-1λ^6,2,5-thiadiazolidine-1,1,3-trione] | – | 10 to 100 | – | 10 to 100 | 15700 | – | –
